Measurements taken from patent US20240100170A1, “CYCLIC-AMP RESPONSE ELEMENT BINDING PROTEIN (CBP) AND/OR ADENOVIRAL E1A BINDING PROTEIN OF 300 KDA (P300) DEGRADATION COMPOUNDS AND METHODS OF USE” (CULLGEN (SHANGHAI), INC., priority 2020, published 2024).
Like-named read-outs stand apart in the source and are kept apart here.

Key:
[1] = system: LNCaP prostate cancer cell; experiment: LNCaP cell viability (CellTiter-Glo); assay type: cell-based; conditions: Homo sapiens, 72 h; LNCaP cell viability, 3 days, CellTiter-Glo; Table 4
Method in brief: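 LNCaP cells (5000/well, RPMI 1640 + 10% FBS, 37 °C) treated with compounds in 12-point 3-fold serial dilution for three days. Viability read by CellTiter-Glo luminescence, normalized to untreated cells; IC50 from least-squares nonlinear regression.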

[2] = target: P300 (Homo sapiens, UniProt Q09472); experiment: percentage of inhibition (degradation) of p300 at 10 nM, Tables 2-4; assay type: cell-based; set-up: LNCaP or 22RV1 cells that express CBP/P300 proteins were treated with GNE-781 or the bivalent compounds; endogenous in cells; host or cells: LNCaP or 22RV1 (not given); conditions: read-out: Degradation (10 nM)
Sequence of P300 (Q09472 whole entry): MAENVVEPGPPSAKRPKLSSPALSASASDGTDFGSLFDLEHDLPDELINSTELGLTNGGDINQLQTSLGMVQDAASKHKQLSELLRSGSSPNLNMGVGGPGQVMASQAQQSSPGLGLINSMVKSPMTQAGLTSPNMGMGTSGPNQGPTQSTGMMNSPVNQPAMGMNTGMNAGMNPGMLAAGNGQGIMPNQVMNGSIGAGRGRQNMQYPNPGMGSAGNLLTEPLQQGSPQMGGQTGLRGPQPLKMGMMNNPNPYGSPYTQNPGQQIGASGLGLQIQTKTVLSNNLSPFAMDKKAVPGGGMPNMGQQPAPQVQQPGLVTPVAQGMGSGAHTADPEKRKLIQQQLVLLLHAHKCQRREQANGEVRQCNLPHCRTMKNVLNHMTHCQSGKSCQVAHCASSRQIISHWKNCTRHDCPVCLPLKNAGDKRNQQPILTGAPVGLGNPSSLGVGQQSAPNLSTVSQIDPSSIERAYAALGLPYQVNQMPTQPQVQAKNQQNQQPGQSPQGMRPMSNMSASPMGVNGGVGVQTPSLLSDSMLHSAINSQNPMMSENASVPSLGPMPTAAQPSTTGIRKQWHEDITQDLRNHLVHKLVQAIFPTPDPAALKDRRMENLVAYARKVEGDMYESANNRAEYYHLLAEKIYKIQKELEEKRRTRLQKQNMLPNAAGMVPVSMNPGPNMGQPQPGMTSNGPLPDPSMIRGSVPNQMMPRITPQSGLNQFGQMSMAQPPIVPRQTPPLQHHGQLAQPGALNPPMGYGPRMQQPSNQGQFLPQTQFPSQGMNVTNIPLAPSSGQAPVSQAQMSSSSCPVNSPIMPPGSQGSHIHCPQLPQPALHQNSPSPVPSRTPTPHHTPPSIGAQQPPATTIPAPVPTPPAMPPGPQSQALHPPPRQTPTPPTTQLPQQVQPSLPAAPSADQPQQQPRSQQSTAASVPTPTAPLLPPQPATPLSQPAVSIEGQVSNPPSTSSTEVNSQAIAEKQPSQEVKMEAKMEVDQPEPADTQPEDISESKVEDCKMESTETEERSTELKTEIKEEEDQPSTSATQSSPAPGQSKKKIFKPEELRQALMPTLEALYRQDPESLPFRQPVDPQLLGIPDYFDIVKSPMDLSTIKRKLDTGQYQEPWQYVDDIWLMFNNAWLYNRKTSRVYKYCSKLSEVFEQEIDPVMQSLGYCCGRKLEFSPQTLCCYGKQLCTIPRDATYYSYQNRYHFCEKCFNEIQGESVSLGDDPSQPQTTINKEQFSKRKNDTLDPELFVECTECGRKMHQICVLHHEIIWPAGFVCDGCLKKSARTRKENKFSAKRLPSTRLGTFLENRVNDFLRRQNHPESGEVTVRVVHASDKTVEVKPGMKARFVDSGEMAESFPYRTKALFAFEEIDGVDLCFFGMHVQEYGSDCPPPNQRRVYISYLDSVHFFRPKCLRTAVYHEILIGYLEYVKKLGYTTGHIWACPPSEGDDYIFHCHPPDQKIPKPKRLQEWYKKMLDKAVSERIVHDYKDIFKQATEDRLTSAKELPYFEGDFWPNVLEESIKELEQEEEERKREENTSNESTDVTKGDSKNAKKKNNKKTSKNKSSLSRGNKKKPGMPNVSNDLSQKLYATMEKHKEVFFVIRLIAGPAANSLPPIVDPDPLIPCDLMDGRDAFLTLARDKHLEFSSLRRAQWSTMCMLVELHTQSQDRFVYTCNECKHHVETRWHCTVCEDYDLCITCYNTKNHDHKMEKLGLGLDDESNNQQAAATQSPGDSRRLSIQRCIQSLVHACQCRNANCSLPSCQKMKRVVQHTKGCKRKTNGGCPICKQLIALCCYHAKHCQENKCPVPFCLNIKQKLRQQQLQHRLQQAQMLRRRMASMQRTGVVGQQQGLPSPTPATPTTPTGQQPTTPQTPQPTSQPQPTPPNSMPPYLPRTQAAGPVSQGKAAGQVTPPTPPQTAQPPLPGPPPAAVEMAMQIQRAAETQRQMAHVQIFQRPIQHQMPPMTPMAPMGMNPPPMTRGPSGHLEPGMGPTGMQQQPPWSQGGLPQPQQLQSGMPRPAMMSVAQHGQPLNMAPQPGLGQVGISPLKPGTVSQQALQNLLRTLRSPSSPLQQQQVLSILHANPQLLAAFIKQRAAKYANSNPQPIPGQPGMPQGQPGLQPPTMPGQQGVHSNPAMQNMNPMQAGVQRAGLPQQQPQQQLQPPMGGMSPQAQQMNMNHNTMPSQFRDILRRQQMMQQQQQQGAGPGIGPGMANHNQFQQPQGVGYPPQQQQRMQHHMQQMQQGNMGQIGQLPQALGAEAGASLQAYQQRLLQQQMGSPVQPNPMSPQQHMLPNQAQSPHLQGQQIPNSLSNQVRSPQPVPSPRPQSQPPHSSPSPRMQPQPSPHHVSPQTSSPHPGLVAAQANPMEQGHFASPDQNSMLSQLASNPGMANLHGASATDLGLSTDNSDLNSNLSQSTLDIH
Method in brief: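 Degradation was measured at 10 nM. Cells or tissue were lysed in RIPA with protease and phosphatase inhibitors for 30 min at 4 °C and cleared, and protein was quantified by BCA. Lysates were resolved by SDS-PAGE, detected by chemiluminescent immunoblot, and bands were quantified by densitometry.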

CC(=O)N1CCc2c(c(N3CCCc4cc(-c5cnn(C)c5)c(C(F)F)cc43)nn2C2CCN(C(=O)CCN3CCC(C#Cc4cccc5c4n(C)c(=O)n5C4CCC(=O)NC4=O)CC3)CC2)C1 (stereo not shown) [P-231, 3-(4-((1-(3-(4-(5-acetyl-3-(7-(difluoromethyl)-6-(1-methyl-1H-pyrazol-4-yl)-3,4-dihydroquinolin-1(2H)-yl)-4,5,6,7-tetrahydro-1H-pyrazolo[4,3-c]pyridin-1-yl)piperidin-1-yl)-3-oxopropyl)piperidin-4-yl)ethynyl)-3-methyl-2-oxo-2,3-dihydro-1H-benzo[d]imidazol-1-yl)piperidine-2,6-dione]
IC50 [1]: 1.3 nM
inhibition at 0.01 µM ([2]; p300, 10 nM, Table 4): > 80%

CC(=O)N1CCc2c(c(N3CCCc4cc(-c5cnn(C)c5)c(C(F)F)cc43)nn2C2CCN(C(=O)CCN3CCC(CCc4cccc5c4n(C)c(=O)n5C4CCC(=O)NC4=O)CC3)CC2)C1 (stereo not shown) [P-232, 3-(4-(2-(1-(3-(4-(5-Acetyl-3-(7-(difluoromethyl)-6-(1-methyl-1H-pyrazol-4-yl)-3,4-dihydroquinolin-1(2H)-yl)-4,5,6,7-tetrahydro-1H-pyrazolo[4,3-c]pyridin-1-yl)piperidin-1-yl)-3-oxopropyl)piperidin-4-yl)ethyl)-3-methyl-2-oxo-2,3-dihydro-1H-benzo[d]imidazol-1-yl)piperidine-2,6-dione]
IC50 [1]: 12.9 nM
inhibition at 0.01 µM ([2]; p300, 10 nM, Table 4): > 80%

CC(=O)N1CCc2c(c(N3CCCc4cc(-c5cnn(C)c5)c(C(F)F)cc43)nn2C2CCN(C(=O)CCN3CCN(CC#Cc4ccc5c(c4)n(C)c(=O)n5C4CCC(=O)NC4=O)CC3)CC2)C1 (stereo not shown) [P-233, 3-(5-(3-(4-(3-(4-(5-Acetyl-3-(7-(difluoromethyl)-6-(1-methyl-1H-pyrazol-4-yl)-3,4-dihydroquinolin-1(2H)-yl)-4,5,6,7-tetrahydro-1H-pyrazolo[4,3-c]pyridin-1-yl)piperidin-1-yl)-3-oxopropyl)piperazin-1-yl)prop-1-yn-1-yl)-3-methyl-2-oxo-2,3-dihydro-1H-benzo[d]imidazol-1-yl)piperidine-2,6-dione]
IC50 [1]: 18.2 nM
inhibition at 0.01 µM ([2]; p300, 10 nM, Table 4): 50 to 80%

CC(=O)N1CCc2c(c(N3CCCc4cc(-c5cnn(C)c5)c(C(F)F)cc43)nn2C2CCN(C(=O)CCN3CCN(CCCc4ccc5c(c4)n(C)c(=O)n5C4CCC(=O)NC4=O)CC3)CC2)C1 (stereo not shown) [P-234, 3-(5-(3-(4-(3-(4-(5-acetyl-3-(7-(difluoromethyl)-6-(1-methyl-1H-pyrazol-4-yl)-3,4-dihydroquinolin-1(2H)-yl)-4,5,6,7-tetrahydro-1H-pyrazolo[4,3-c]pyridin-1-yl)piperidin-1-yl)-3-oxopropyl)piperazin-1-yl)propyl)-3-methyl-2-oxo-2,3-dihydro-1H-benzo[d]imidazol-1-yl)piperidine-2,6-dione]
IC50 [1]: 6.8 nM
inhibition at 0.01 µM ([2]; p300, 10 nM, Table 4): > 80%

CC(=O)N1CCc2c(c(N3CCCc4cc(-c5cnn(C)c5)c(C(F)F)cc43)nn2C2CCN(CCCN3CCC(Cn4c(=O)n(C5CCC(=O)NC5=O)c5ccccc54)CC3)CC2)C1 (stereo not shown) [P-235, 3-(3-((1-(3-(4-(5-Acetyl-3-(7-(difluoromethyl)-6-(1-methyl-1H-pyrazol-4-yl)-3,4-dihydroquinolin-1(2H)-yl)-4,5,6,7-tetrahydro-1H-pyrazolo[4,3-c]pyridin-1-yl)piperidin-1-yl)propyl)piperidin-4-yl)methyl)-2-oxo-2,3-dihydro-1H-benzo[d]imidazol-1-yl)piperidine-2,6-dione]
IC50 [1]: 844 nM
inhibition at 0.01 µM ([2]; p300, 10 nM, Table 4): < 20%

CC(=O)N1CCc2c(c(N3CCCc4cc(-c5cnn(C)c5)c(C(F)F)cc43)nn2C2CCN(C(=O)CN3CCN(CCCc4cccc5c4n(C)c(=O)n5C4CCC(=O)NC4=O)CC3)CC2)C1 (stereo not shown) [P-237, 3-(4-(3-(4-(2-(4-(5-Acetyl-3-(7-(difluoromethyl)-6-(1-methyl-1H-pyrazol-4-yl)-3,4-dihydroquinolin-1(2H)-yl)-4,5,6,7-tetrahydro-1H-pyrazolo[4,3-c]pyridin-1-yl)piperidin-1-yl)-2-oxoethyl)piperazin-1-yl)propyl)-3-methyl-2-oxo-2,3-dihydro-1H-benzo[d]imidazol-1-yl)piperidine-2,6-dione]
IC50 [1]: 307 nM
inhibition at 0.01 µM ([2]; p300, 10 nM, Table 4): 20 to 50%

CC(=O)N1CCc2c(c(N3CCCc4cc(-c5cnn(C)c5)c(C(F)F)cc43)nn2C2CCN(C(=O)CCN3CCN(CC#Cc4cccc5c4n(C)c(=O)n5C4CCC(=O)NC4=O)CC3)CC2)C1 (stereo not shown) [P-238, 3-(4-(3-(4-(3-(4-(5-Acetyl-3-(7-(difluoromethyl)-6-(1-methyl-1H-pyrazol-4-yl)-3,4-dihydroquinolin-1(2H)-yl)-4,5,6,7-tetrahydro-1H-pyrazolo[4,3-c]pyridin-1-yl)piperidin-1-yl)-3-oxopropyl)piperazin-1-yl)prop-1-yn-1-yl)-3-methyl-2-oxo-2,3-dihydro-1H-benzo[d]imidazol-1-yl)piperidine-2,6-dione]
IC50 [1]: 81.1 nM
inhibition at 0.01 µM ([2]; p300, 10 nM, Table 4): 20 to 50%

CC(=O)N1CCc2c(c(N3CCCc4cc(-c5cnn(C)c5)c(C(F)F)cc43)nn2C2CCN(C(=O)CCN3CCN(CCCc4cccc5c4n(C)c(=O)n5C4CCC(=O)NC4=O)CC3)CC2)C1 (stereo not shown) [P-239, 3-(4-(3-(4-(3-(4-(5-Acetyl-3-(7-(difluoromethyl)-6-(1-methyl-1H-pyrazol-4-yl)-3,4-dihydroquinolin-1(2H)-yl)-4,5,6,7-tetrahydro-1H-pyrazolo[4,3-c]pyridin-1-yl)piperidin-1-yl)-3-oxopropyl)piperazin-1-yl)propyl)-3-methyl-2-oxo-2,3-dihydro-1H-benzo[d]imidazol-1-yl)piperidine-2,6-dione]
IC50 [1]: 263 nM
inhibition at 0.01 µM ([2]; p300, 10 nM, Table 4): < 20%

CC(=O)N1CCc2c(c(N3CCCc4cc(-c5cnn(C)c5)c(C(F)F)cc43)nn2C2CCN(C(=O)CCCCCCNc3ccc(C(=O)NC4CCC(=O)NC4=O)c4ncccc34)CC2)C1 (stereo not shown) [P-240, 5-((7-(4-(5-acetyl-3-(7-(difluoromethyl)-6-(1-methyl-1H-pyrazol-4-yl)-3,4-dihydroquinolin-1(2H)-yl)-4,5,6,7-tetrahydro-1H-pyrazolo[4,3-c]pyridin-1-yl)piperidin-1-yl)-7-oxoheptyl)amino)-N-(2,6-dioxopiperidin-3-yl)quinoline-8-carboxamide]
IC50 [1]: 1.4 nM
inhibition at 0.01 µM ([2]; p300, 10 nM, Table 4): > 80%

CC(=O)N1CCc2c(c(N3CCCc4cc(-c5cnn(C)c5)c(C(F)F)cc43)nn2C2CCN(C(=O)CCCCNc3ccc(C(=O)NC4CCC(=O)NC4=O)c4ncccc34)CC2)C1 (stereo not shown) [P-241, 5-((5-(4-(5-acetyl-3-(7-(difluoromethyl)-6-(1-methyl-1H-pyrazol-4-yl)-3,4-dihydroquinolin-1(2H)-yl)-4,5,6,7-tetrahydro-1H-pyrazolo[4,3-c]pyridin-1-yl)piperidin-1-yl)-5-oxopentyl)amino)-N-(2,6-dioxopiperidin-3-yl)quinoline-8-carboxamide]
IC50 [1]: 1.4 nM
inhibition at 0.01 µM ([2]; p300, 10 nM, Table 4): > 80%

CC(=O)N1CCc2c(c(N3CCCc4cc(-c5cnn(C)c5)c(C(F)F)cc43)nn2C2CCN(C(=O)CCCCCNc3ccc(C(=O)NC4CCC(=O)NC4=O)c4ncccc34)CC2)C1 (stereo not shown) [P-242, 5-((6-(4-(5-acetyl-3-(7-(difluoromethyl)-6-(1-methyl-1H-pyrazol-4-yl)-3,4-dihydroquinolin-1(2H)-yl)-4,5,6,7-tetrahydro-1H-pyrazolo[4,3-c]pyridin-1-yl)piperidin-1-yl)-6-oxohexyl)amino)-N-(2,6-dioxopiperidin-3-yl)quinoline-8-carboxamide]
IC50 [1]: 1.1 nM
inhibition at 0.01 µM ([2]; p300, 10 nM, Table 4): > 80%

CC(=O)N1CCc2c(c(N3CCCc4cc(-c5cnn(C)c5)c(C(F)F)cc43)nn2C2CCN(CCCN3CCC(C#Cc4ccc5c(c4)n(C)c(=O)n5C4CCC(=O)NC4=O)CC3)CC2)C1 (stereo not shown) [P-243, 3-(5-((1-(3-(4-(5-acetyl-3-(7-(difluoromethyl)-6-(1-methyl-1H-pyrazol-4-yl)-3,4-dihydroquinolin-1(2H)-yl)-4,5,6,7-tetrahydro-1H-pyrazolo[4,3-c]pyridin-1-yl)piperidin-1-yl)propyl)piperidin-4-yl)ethynyl)-3-methyl-2-oxo-2,3-dihydro-1H-benzo[d]imidazol-1-yl)piperidine-2,6-dione]
IC50 [1]: 0.2 nM
inhibition at 0.01 µM ([2]; p300, 10 nM, Table 4): > 80%

CC(=O)N1CCc2c(c(N3CCCc4cc(-c5cnn(C)c5)c(C(F)F)cc43)nn2C2CCN(CCCN3CCC(CCc4ccc5c(c4)n(C)c(=O)n5C4CCC(=O)NC4=O)CC3)CC2)C1 (stereo not shown) [P-244, 3-(5-(2-(1-(3-(4-(5-acetyl-3-(7-(difluoromethyl)-6-(1-methyl-1H-pyrazol-4-yl)-3,4-dihydroquinolin-1(2H)-yl)-4,5,6,7-tetrahydro-1H-pyrazolo[4,3-c]pyridin-1-yl)piperidin-1-yl)propyl)piperidin-4-yl)ethyl)-3-methyl-2-oxo-2,3-dihydro-1H-benzo[d]imidazol-1-yl)piperidine-2,6-dione]
IC50 [1]: 0.8 nM
inhibition at 0.01 µM ([2]; p300, 10 nM, Table 4): > 80%

CC(=O)N1CCc2c(c(N3CCCc4cc(-c5cnn(C)c5)c(C(F)F)cc43)nn2C2CCN(CCN3CCC4(CC3)CN(c3cccc5c3C(=O)N(C3CCC(=O)NC3=O)C5=O)C4)CC2)C1 (stereo not shown) [P-245, 4-(7-(2-(4-(5-acetyl-3-(7-(difluoromethyl)-6-(1-methyl-1H-pyrazol-4-yl)-3,4-dihydroquinolin-1(2H)-yl)-4,5,6,7-tetrahydro-1H-pyrazolo[4,3-c]pyridin-1-yl)piperidin-1-yl)ethyl)-2,7-diazaspiro[3.5]nonan-2-yl)-2-(2,6-dioxopiperidin-3-yl)isoindoline-1,3-dione]
IC50 [1]: > 500 nM
inhibition at 0.01 µM [2]: 20 to 50%
